# Experimental data published in US20080227790A1, “Pyridazinone Derivatives and their Use as Pde4 Inhibitors” (Altana Pharma AG, priority 2004, published 2008).
# Key:
# PDE4B2 = target: T1, PDE4B2 (Homo sapiens, UniProt Q07343); assay: Inhibition of PDE4B2 activity, modified [3H]cAMP SPA enzyme assay; format: biochemical; conditions: recombinant PDE4B2 (GB no. M97515) expressed in SF21 cells; 0.5 μM cAMP; 15 min at 37° C.; read-out: PDE4 Inhibition [measured as −logIC50 (mol/l)] (converted)
# T1 construct: made in house; host or cells: SF21 insect cells (baculovirus prepared in SF9 cells; pCR-Bac vector)
# T1 sequence (Q07343 1-564 isoform Q07343-2): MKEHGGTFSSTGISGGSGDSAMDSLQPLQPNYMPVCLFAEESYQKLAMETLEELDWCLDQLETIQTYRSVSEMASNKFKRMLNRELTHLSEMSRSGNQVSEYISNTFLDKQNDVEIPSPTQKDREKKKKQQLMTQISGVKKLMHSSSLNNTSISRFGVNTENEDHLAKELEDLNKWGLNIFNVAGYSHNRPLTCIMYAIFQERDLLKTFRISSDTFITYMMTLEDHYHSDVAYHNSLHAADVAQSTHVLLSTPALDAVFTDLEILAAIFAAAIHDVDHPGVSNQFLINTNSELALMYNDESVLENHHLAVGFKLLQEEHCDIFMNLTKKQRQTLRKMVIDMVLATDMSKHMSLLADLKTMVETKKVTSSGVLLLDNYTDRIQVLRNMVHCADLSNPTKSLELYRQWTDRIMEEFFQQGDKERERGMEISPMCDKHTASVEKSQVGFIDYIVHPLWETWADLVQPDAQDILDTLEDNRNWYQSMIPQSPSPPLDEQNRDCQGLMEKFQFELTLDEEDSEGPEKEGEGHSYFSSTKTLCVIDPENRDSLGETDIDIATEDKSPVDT
# Experimental: PDE4B2 (GB no. M97515) was a gift of Prof. M. Conti (Stanford University, USA). It was amplified from the original plasmid (pCMV5) via PCR with primers Rb9 (5′-[…]-3′) and Rb10 (5′-[…]-3′) and cloned into the pCR-Bac vector (Invitrogen, Groningen, NL).
# The recombinant baculovirus was prepared by means of homologous recombination in SF9 insect cells. The expression plasmids were cotransfected with Bac-N-Blue (Invitrogen, Groningen, NL) or Baculo-Gold DNA (Pharmingen, Hamburg) using a standard protocol (Pharmingen, Hamburg). Wt virus-free recombinant virus supernatants were selected using plaque assay methods. After that, high-titre virus supernatants were prepared by amplifying 3 times. PDE4B2 was expressed in SF21 cells by infecting 2×10^6 cells/ml with an MOI (multiplicity of infection) between 1 and 10 in serum-free SF900 medium (Life Technologies, Paisley, UK). The cells were cultured at 28° C. for 48-72 hours, after which they were pelleted for 5-10 min at 1000 g and 4° C.
# The SF21 insect cells were resuspended, at a concentration of approx. 10^7 cells/ml, in ice-cold (4° C.) homogenization buffer (20 mM Tris, pH 8.2, containing the following additions: 140 mM NaCl, 3.8 mM KCl, 1 mM EGTA, 1 mM MgCl2, 10 mM β-mercaptoethanol, 2 mM benzamidine, 0.4 mM Pefablock, 10 μM leupeptin, 10 μM pepstatin A, 5 μM trypsin inhibitor) and disrupted by ultrasonication. The homogenate was then centrifuged for 10 min at 1000×g and the supernatant was stored at −80° C. until sub-sequent use (see below). The protein content was determined by the Bradford method (BioRad, Munich) using BSA as the standard.
# PDE4B2 activity was inhibited by the compounds according to the invention in a modified SPA (scintillation proximity assay) test, supplied by Amersham Biosciences (see procedural instructions “phosphodiesterase [3H]cAMP SPA enzyme assay, code TRKQ 7090”), carried out in 96-well microtitre plates (MTP's). The test volume is 100 μl and contains 20 mM Tris buffer (pH 7.4), 0.1 mg of BSA (bovine serum albumin)/ml, 5 mM Mg^2+, 0.5 μM cAMP (including about 50,000 cpm of [3H]cAMP), 1 μl of the respective substance dilution in DMSO and sufficient recombinant PDE (1000×g supernatant, see above) to ensure that 10-20% of the cAMP is converted under the said experimental conditions. […] After a preincubation of 5 min at 37° C., the reaction is started by adding the substrate (cAMP) and the assays are incubated for a further 15 min; after that, they are stopped by adding SPA beads (50 μl). In accordance with the manufacturer's instructions, the SPA beads had previously been resuspended in water, but were then diluted 1:3 (v/v) in water; the diluted solution also contains 3 mM IBMX to ensure a complete PDE activity stop. After the beads have been sedimented (>30 min), the MTP's are analyzed in commercially available luminescence detection devices. The corresponding IC50 values of the compounds for the inhibition of PDE4B2 activity are determined from the concentration-effect curves by means of non-linear regression.
Compound,IC50 (PDE4B2),melting point
"COc1ccc(C2=NN(c3ccc(C(=O)O)cc3)C(=O)C(C)(C)C2)cc1OC [Compound 1, 4-(3-{3,4-dimethoxyphenyl}-5,5-dimethyl-6-oxo-5,6-dihydro-4H-pyridazin-1-yl)-benzoic acid]",32.4 nM,196 to 198 °C
"COc1ccc(C2=NN(c3ccc(OCc4ccccc4)cc3)C(=O)C(C)(C)C2)cc1OC [Compound 2, 2-(4-Benzyloxy-phenyl)-6-(3,4-dimethoxy-phenyl)-4,4-dimethyl-4,5-dihydro-2H-pyridazin-3-one]",3.98 nM,137 to 138 °C
"COc1ccc(C2=NN(c3ccc(C(=O)N4CCN(CCN5CCOCC5)CC4)cc3)C(=O)C(C)(C)C2)cc1OC.Cl.Cl [Compound 3, 6-(3,4-Dimethoxy-phenyl)-4,4-dimethyl-2-(4-{1-[4-(2-morpholin-4-yl-ethyl)-piperazin-1-yl]-methanoyl}-phenyl)-4,5-dihydro-2H-pyridazin-3-one dihydrochloride]",11.2 nM,249 °C (dec.)
"COc1ccc(C2=NN(c3ccc(C(=O)N4CCN(c5ccncc5)CC4)cc3)C(=O)C(C)(C)C2)cc1OC.Cl.Cl [Compound 4, 6-(3,4-Dimethoxy-phenyl)-4,4-dimethyl-2-{4-[1-(4-pyridin-4-yl-piperazin-1-yl)-methanoyl]-phenyl}-4,5-dihydro-2H-pyridazin-3-one dihydrochloride]",7.76 nM,223 to 225 °C
"COc1ccc(C2=NN(c3ccc(O)cc3)C(=O)C(C)(C)C2)cc1OC [Compound 5, 6-(3,4-Dimethoxy-phenyl)-2-(4-hydroxy-phenyl)-4,4-dimethyl-4,5-dihydro-2H-pyridazin-3-one]",6.03 nM,176 to 178 °C
"COc1ccc(C2=NN(c3ccc(C(=O)N4CCOCC4)cc3)C(=O)C(C)(C)C2)cc1OC [Compound 6, 6-(3,4-Dimethoxy-phenyl)-4,4-dimethyl-2-[4-(1-morpholin-4-yl-methanoyl)-phenyl]-4,5-dihydro-2H-pyridazin-3-one]",1.74 nM,165 to 166 °C
"COc1ccc(C2=NN(c3ccc(OCC(N)=O)cc3)C(=O)C(C)(C)C2)cc1OC [Compound 7, 2-{4-[3-(3,4-Dimethoxy-phenyl)-5,5-dimethyl-6-oxo-5,6-dihydro-4H-pyridazin-1-yl]-phenoxy}-acetamide]",10.5 nM,184 to 187 °C
"COc1ccc(C2=NN(c3ccc(C(=O)N4CCN(CC(=O)N5CCCC5)CC4)cc3)C(=O)C(C)(C)C2)cc1OC.Cl [Compound 8, 6-(3,4-Dimethoxy-phenyl)-4,4-dimethyl-2-(4-{1-[4-(2-oxo-2-pyrrolidin-1-yl-ethyl)-piperazin-1-yl]-methanoyl}-phenyl)-4,5-dihydro-2H-pyridazin-3-one hydrochloride]",7.59 nM,144 to 146 °C
"COc1ccc(C2=NN(c3ccc(OCC(=O)N4CCN(C)CC4)cc3)C(=O)C(C)(C)C2)cc1OC.Cl [Compound 9, 6-(3,4-Dimethoxy-phenyl)-4,4-dimethyl-2-{4-[2-(4-methyl-piperazin-1-yl)-2-oxo-ethoxy]-phenyl}-4,5-dihydro-2H-pyridazin-3-one hydrochloride]",–,198 to 202 °C
"COc1ccc(C2=NN(c3ccc(OCC(=O)N4CCOCC4)cc3)C(=O)C(C)(C)C2)cc1OC [Compound 10, 6-(3,4-Dimethoxy-phenyl)-4,4-dimethyl-2-[4-(2-morpholin-4-yl-2-oxo-ethoxy)-phenyl]-4,5-dihydro-2Hpyridazin-3-one]",15.5 nM,74 to 79 °C
"COc1ccc(C2=NN(c3cccc(C(=O)O)c3)C(=O)C(C)(C)C2)cc1OC [Compound 11, 3-[3-(3,4-Dimethoxy-phenyl)-5,5-dimethyl-6-oxo-5,6-dihydro-4H-pyridazin-1-yl]-benzoic acid]",–,165 to 167 °C
"COc1ccc(C2=NN(c3cccc(C(=O)N4CCOCC4)c3)C(=O)C(C)(C)C2)cc1OC [Compound 13, 6-(3,4-Dimethoxy-phenyl)-4,4-dimethyl-2-[3-(1-morpholin-4-yl-methanoyl)-phenyl]-4,5-dihydro-2H-pyridazin-3-one]",–,108 to 109 °C
"COc1ccc(C2=NN(c3ccc(CC(=O)N4CCOCC4)cc3)C(=O)C(C)(C)C2)cc1OC [Compound 14, 6-(3,4-Dimethoxy-phenyl)-4,4-dimethyl-2-[4-(2-morpholin-4-yl-2-oxo-ethyl)-phenyl]-4,5-dihydro-2H-pyridazin-3-one]",–,165 to 167 °C
"COc1ccc(C2=NN(c3ccc(Br)cc3)C(=O)C(C)(C)C2)cc1OC [Compound 15, 2-(4-Bromo-phenyl)-6-(3,4-dimethoxy-phenyl)-4,4-dimethyl-4,5-dihydro-2H-pyridazin-3-one]",–,123 to 124 °C
"COc1ccc(C2=NN(c3ccc(N4CCOCC4)cc3)C(=O)C(C)(C)C2)cc1OC [Compound 16, 6-(3,4-Dimethoxy-phenyl)-4,4-dimethyl-2-(4-morpholin-4-yl-phenyl)-4,5-dihydro-2H-pyridazin-3-one]",–,178 to 179 °C
